What all share (assay): NCI-60 cell line screen, 48 h
Assay [1] concerns LOX IMVI.
Assay [2] deals with A498.
The subject of assay [3] is SNB-75.
The subject of assay [4] is Hs-578T.
Assay [5] concerns NCI/ADR-RES.
The test system of assay [6] is BT-549.
Assay [7] deals with SN12C.
Assay [8] deals with SK-MEL-28.
In assay [9] the test system is PC-3.
The subject of assay [10] is HCT-15.
Assay [11] relates to NCI-H522.
Assay [12] deals with HT-29.
Assay [13] relates to Malme-3M.
The test system of assay [14] is OVCAR-8.
Assay [15] concerns RXF 393.
For assay [16], the system named is EKVX.
Assay [17] concerns SK-OV-3.
Assay [18] relates to COLO 205.
Assay [19] relates to U-251.
For assay [20], the system named is OVCAR-4.

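Five concentrations, 48 hours, 96-well plates. GI50 is the concentration that inhibits growth by half.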 Active and inactive are the calls of the source. No stated cut-off is given here; in the data, active = GI50 up to about 1.1 µM and inactive = higher.

For the compound `Cc1ncc([N+](=O)[O-])n1CCNS(=O)(=O)CCCn1ncnc1[N+](=O)[O-]`, the GI50 in assay [1], in assay [2], in assay [3], in [4], in assay [5] and in assay [6] was > 100 µM (inactive) in each case. Also, the GI50 is > 100 µM (inactive) in assay [7]; > 100 µM (inactive) in [8]; > 100 µM (inactive) in assay [9]; > 100 µM in assay [10]; > 100 µM (inactive) in [11]; > 100 µM (inactive) in assay [12]. Moreover, the GI50 in assay [13], in assay [14], in [15], in assay [16], in [17] and in assay [18] was > 100 µM (inactive) throughout. Moreover, the GI50 in assay [19] and in assay [20] was > 100 µM (inactive) in each case.

`COC(=O)c1c(OC(C)=O)ccc2c1c1c(OC(C)=O)c3ccccc3c(OC(C)=O)c1n2Cc1cc(OC)cc(OC)c1`: the GI50 in assay [2] is 23.1 µM (inactive); in assay [3] it was 7.19 µM (inactive); in [4], 14.2 µM (inactive); in assay [5], 5.78 µM (inactive); in assay [6], 6.82 µM (inactive); in [7], 45.7 µM (inactive). Besides, the GI50 was 24.4 µM (inactive) in assay [8]; 4.66 µM (inactive) in assay [9]; 4.32 µM in [10]; 3.06 µM (inactive) in assay [11]; 47.9 µM (inactive) in assay [12]; 12 µM (inactive) in assay [13]. Also, the GI50 in assay [14] was 4.93 µM (inactive); in assay [15], 8.81 µM (inactive); in assay [16] it was 2.58 µM (inactive); in assay [17], 9.68 µM (inactive); in assay [18], 26.1 µM (inactive); in assay [19] it was 5.5 µM (inactive). Moreover, in [20], the GI50 was 4.41 µM (inactive).

As for `CN(C)CCNC1=C(Cl)C(=O)c2c(O)ccc(O)c2C1=O`, the GI50 in [2] is 3.39 µM (inactive); in assay [3], 2.99 µM (inactive); in assay [4], 2.99 µM (inactive); in assay [5], 3.12 µM (inactive); in [6] it was 1.72 µM (inactive); in assay [7] it was 1.89 µM (inactive). The GI50 in assay [8] was 2.12 µM (inactive); in assay [9] it was 6.31 µM (inactive); in assay [10], 2.51 µM; in assay [11], 1.79 µM (inactive); in [12], 1.85 µM (inactive); in [13], 2.09 µM (inactive). In addition, the GI50 is 1.9 µM (inactive) in [14]; 4.34 µM (inactive) in [15]; 2.97 µM (inactive) in [16]; 18.2 µM (inactive) in [17]; 1.93 µM (inactive) in assay [18]; 1.84 µM (inactive) in assay [19]. The GI50 in [20] is 1.87 µM (inactive).

For `COc1ccc(N2C(=O)C3c4[nH]c5ccc(OC)cc5c4C4CCC(c5ccccc5)CC4C3C2=O)cc1` (stereo not drawn), the GI50 in assay [1] is 17.3 µM (inactive); in [2], 14.2 µM (inactive); in assay [3], 3.15 µM (inactive); in [4], 1.6 µM (inactive); in assay [5], 12.6 µM (inactive); in assay [6] it was 19.6 µM (inactive). Besides, the GI50 was 6.15 µM (inactive) in [7]; 14.1 µM (inactive) in [8]; 19.2 µM (inactive) in assay [9]; 31.3 µM in [10]; 7.89 µM (inactive) in [11]; 4.04 µM (inactive) in assay [12]. Further, the GI50 was 11.4 µM (inactive) in [13]; 7.48 µM (inactive) in assay [14]; 10.9 µM (inactive) in assay [15]; 9.08 µM (inactive) in assay [16]; 12.2 µM (inactive) in [17]; 6.19 µM (inactive) in assay [18]. The GI50 in assay [19] is 8.99 µM (inactive); in assay [20], 4.21 µM (inactive).

Consider `C=C(Cl)C(C)(Cl)CCC(Cl)C(C)C` (stereo not drawn), for which the GI50 in [1] is 15.3 µM (inactive); in [2], > 100 µM (inactive); in assay [3], 24.6 µM (inactive); in [4], > 100 µM (inactive); in assay [5], > 100 µM (inactive); in assay [6], > 100 µM (inactive). Moreover, the GI50 in [7] was > 100 µM (inactive); in [8], > 100 µM (inactive); in [9], > 100 µM (inactive); in assay [11] it was 37 µM (inactive); in assay [12], 66.8 µM (inactive); in assay [13], > 100 µM (inactive). In addition, the GI50 in assay [15] was > 100 µM (inactive); in assay [16], > 100 µM (inactive); in assay [17] it was 29.6 µM (inactive); in assay [18], > 100 µM (inactive); in assay [19], > 100 µM (inactive); in assay [20] it was > 100 µM (inactive).

As for `CCC(=O)c1ccc2[nH]c3c(C)c4c(O)cc(C)nc4c(C)c3c2c1`, the GI50 in [1], in assay [2], in assay [3], in assay [4], in [5] and in assay [6] was > 100 µM (inactive) in each case. For the same compound, the GI50 was > 100 µM (inactive) in assay [8]; > 100 µM (inactive) in assay [9]; > 100 µM in assay [10]; > 100 µM (inactive) in assay [11]; > 100 µM (inactive) in [12]; > 100 µM (inactive) in assay [13]. The GI50 in [14] is > 100 µM (inactive); in assay [15] it was > 100 µM (inactive); in [16] it was > 100 µM (inactive); in assay [18], > 100 µM (inactive); in assay [19], 42.6 µM (inactive); in [20], > 100 µM (inactive).

For the compound `O=C1C2CCCCC2C(=O)N1n1c(-c2ccccc2)n[nH]c1=O` (stereo not drawn), the GI50 in assay [1], in assay [2], in [3], in assay [4], in [5] and in assay [6] was > 100 µM (inactive) in each case. Besides, the GI50 in [7] was > 100 µM (inactive); in [9], > 100 µM (inactive); in [10], > 100 µM; in assay [11] it was > 100 µM (inactive); in assay [12] it was > 100 µM (inactive); in assay [13], > 100 µM (inactive). Further, the GI50 in [14], in [15], in assay [16], in assay [17], in assay [18] and in [19] was > 100 µM (inactive) throughout. The GI50 in assay [20] is > 100 µM (inactive).

Regarding `Cc1nc2cc([N+](=O)[O-])ccc2c(NCCCN(C)C)c1C`, the GI50 in [1] was 11 µM (inactive); in assay [2] it was 14.9 µM (inactive); in assay [3], 20.7 µM (inactive); in [4], 20 µM (inactive); in assay [5], 16.3 µM (inactive); in assay [6] it was 11.8 µM (inactive). Further, the GI50 was 11.4 µM (inactive) in assay [7]; 50.5 µM (inactive) in assay [8]; 4.71 µM (inactive) in assay [9]; 14.7 µM in [10]; 3.61 µM (inactive) in assay [11]; 2.76 µM (inactive) in assay [12]. Besides, the GI50 in assay [13] was 6.22 µM (inactive); in [14], 11.5 µM (inactive); in [15], 11.1 µM (inactive); in assay [17], 31.5 µM (inactive); in [18], 2.56 µM (inactive); in [19] it was 18.8 µM (inactive). The GI50 in assay [20] was 3.03 µM (inactive).

Regarding `CCOc1ccncc1[N+](=O)[O-]`, the GI50 in assay [1], in [2], in assay [3], in assay [4], in assay [5] and in assay [6] was > 100 µM (inactive) in each case. For the same compound, the GI50 in [7] was > 100 µM (inactive); in [8] it was > 100 µM (inactive); in assay [9] it was > 100 µM (inactive); in assay [10], > 100 µM; in assay [11], > 100 µM (inactive); in assay [12], > 100 µM (inactive). The GI50 in assay [13] was > 100 µM (inactive); in [14] it was > 100 µM (inactive); in assay [15], > 100 µM (inactive); in [16], > 100 µM (inactive); in assay [17], > 100 µM (inactive); in [18], > 10 µM (inactive). For the same compound, the GI50 in [19] is > 100 µM (inactive).

As for `C/C(=N\NC(N)=O)C(CN(C)C)C(c1ccccc1)c1c(O)c2ccccc2oc1=O` (stereo not drawn), the GI50 in assay [1], in [2], in [3], in assay [4], in assay [5] and in assay [6] was > 100 µM (inactive) in each case. The GI50 in [7] is > 100 µM (inactive); in assay [8], > 100 µM (inactive); in assay [9], > 100 µM (inactive); in [10] it was > 100 µM; in assay [11], > 100 µM (inactive); in [12], > 100 µM (inactive). The GI50 in [13] was 42.4 µM (inactive); in [14], > 100 µM (inactive); in assay [15] it was 88.7 µM (inactive); in assay [16], > 100 µM (inactive); in assay [18], 36.4 µM (inactive); in assay [19] it was > 100 µM (inactive). For the same compound, the GI50 in assay [20] is > 100 µM (inactive).

In the case of `COc1c2c(cc3oc(C)cc(=O)c13)OC(=N)C(C(N)=O)C2CC(=O)c1ccc(N)cc1` (stereo not drawn), the GI50 in [1], in assay [2], in assay [3], in [4], in assay [5] and in assay [6] was > 100 µM (inactive) each time. Besides, the GI50 was > 100 µM (inactive) in assay [7]; > 100 µM (inactive) in assay [8]; > 100 µM (inactive) in assay [9]; > 100 µM in [10]; > 100 µM (inactive) in assay [11]; > 100 µM (inactive) in [13]. Besides, the GI50 in assay [14], in [15], in assay [16], in assay [18], in assay [19] and in assay [20] was > 100 µM (inactive) each time.

Values taken from ChEMBL document CHEMBL1201862, “PubChem BioAssay data set” (2004).
